“And” between values parts separate entries of the source, which are not always exact repeats. Identical values can stand only once. Toxic doses and inconclusive results are not listed. Cut-off read from the data, not from the text of the source: active = T/C of 150% or more; inactive = T/C below 125%.
Test system: L1210 leukemia ip in BDF1 mice, survival T/C
Test: NCI In Vivo Anticancer Drug Screen. Data for tumor model L1210 Leukemia (intraperitoneal) in B6D2F1 (BDF1) mice
Settings: endpoint: mean survival time, higher = longer survival
Method in brief: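 Tumor was transplanted into mice, which were then dosed with test compound or vehicle alone. Survival was recorded for each group, and the treated figure was expressed relative to the control figure.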

[1] = dose: 100.0 mg/kg/injection, schedule: Q04DX003 (ip), vehicle: Klucel (hydroxypropylcellulose) (HPC)
[2] = dose: 200.0 mg/kg/injection, schedule: Q04DX003 (ip), vehicle: Klucel (hydroxypropylcellulose) (HPC)
[3] = dose: 400.0 mg/kg/injection, schedule: Q04DX003 (ip), vehicle: Klucel (hydroxypropylcellulose) (HPC)
[4] = dose: 100.0 mg/kg/injection, schedule: Q01DX001 (ip), vehicle: saline
[5] = dose: 200.0 mg/kg/injection, schedule: Q01DX001 (ip), vehicle: saline
[6] = dose: 100.0 mg/kg/injection, schedule: Q04DX003 (ip), vehicle: saline
[7] = dose: 200.0 mg/kg/injection, schedule: Q04DX003 (ip), vehicle: saline
[8] = dose: 400.0 mg/kg/injection, schedule: Q04DX003 (ip), vehicle: saline
[9] = dose: 400.0 mg/kg/injection, schedule: Q01DX001 (ip), vehicle: saline
[10] = dose: 100.0 mg/kg/injection, schedule: Q04DX002 (ip), vehicle: Klucel (hydroxypropylcellulose) (HPC)
[11] = dose: 200.0 mg/kg/injection, schedule: Q04DX002 (ip), vehicle: Klucel (hydroxypropylcellulose) (HPC)
[12] = dose: 400.0 mg/kg/injection, schedule: Q04DX002 (ip), vehicle: Klucel (hydroxypropylcellulose) (HPC)
[13] = dose: 100.0 mg/kg/injection, schedule: Q01DX009 (ip), vehicle: Klucel (hydroxypropylcellulose) (HPC)
[14] = dose: 200.0 mg/kg/injection, schedule: Q01DX009 (ip), vehicle: Klucel (hydroxypropylcellulose) (HPC)
[15] = dose: 400.0 mg/kg/injection, schedule: Q01DX009 (ip), vehicle: Klucel (hydroxypropylcellulose) (HPC)
[16] = dose: 50.0 mg/kg/injection, schedule: Q01DX009 (ip), vehicle: saline with Tween-80
[17] = dose: 100.0 mg/kg/injection, schedule: Q04DX003 (ip), vehicle: saline with Tween-80
[18] = dose: 200.0 mg/kg/injection, schedule: Q04DX003 (ip), vehicle: saline with Tween-80
[19] = dose: 100.0 mg/kg/injection, schedule: Q01DX009 (ip), vehicle: saline with Tween-80
[20] = dose: 200.0 mg/kg/injection, schedule: Q01DX009 (ip), vehicle: saline with Tween-80

Measured: T/C

C=CCN(CC=C)c1ncnc(N(C)C)n1
inactive: dose: 25.6 mg/kg/injection, schedule: Q04DX002 (ip), vehicle: saline with Tween-80 93 % of control | dose: 64.0 mg/kg/injection, schedule: Q04DX002 (ip), vehicle: saline with Tween-80 101 % of control | dose: 160.0 mg/kg/injection, schedule: Q04DX002 (ip), vehicle: saline with Tween-80 101 % of control | dose: 400.0 mg/kg/injection, schedule: Q04DX002 (ip), vehicle: saline with Tween-80 97 % of control

CCCCCCCCCCCCN(CCCCCCCCCCCC)S(=O)(=O)c1ccc(Cl)c([N+](=O)[O-])c1
inactive: [1] 94 % of control | [2] 94 % of control | [3] 104 % of control

CCC[CH2][Pb]([CH2]CCC)([CH2]CCC)[O]C(C)=O
inactive: [4] 101 % of control | [5] 95 % of control

C/C=C\C(=O)O
inactive: dose: 100.0 mg/kg/injection, schedule: Q01DX009 (ip), vehicle: saline 101 % of control | dose: 200.0 mg/kg/injection, schedule: Q01DX009 (ip), vehicle: saline 96 % of control

COc1ccc(C[n+]2cccc(NC(=O)COc3ccc(Cl)c(Cl)c3)c2)cc1
inactive: [1] 97 % of control

COc1ccc(CCN2CCCC2C(=O)O)cc1OC (stereo not drawn)
inactive: [6] 96 % of control | [7] 94 % of control | [8] 100 % of control

NC(=O)c1c([N+](=O)[O-])ncn1C1OC(CO)C(O)C1O (stereo not drawn)
inactive: [4] 98 % of control | [5] 102 % of control | [9] 96 % of control

COC(=O)C(=O)CC(=O)c1ccc(OC)cc1
inactive: [10] 103 % of control | [11] 95 % of control | [12] 100 % of control

O=C1c2ccccc2C(=O)N1OC1CCCCO1 (stereo not drawn)
inactive: [13] 104 % of control | [14] 110 % of control | [15] 97 % of control

CC(=O)Nc1ccc(C=NCCN=Cc2ccc(NC(C)=O)cc2)cc1
inactive: [1] 97 % of control | [2] 88 % of control | [3] 88 % of control

Cc1ccc2cccc([N+](=O)[O-])c2n1
inactive: dose: 12.5 mg/kg/injection, schedule: Q01DX009 (ip), vehicle: saline with Tween-80 93 % of control | dose: 25.0 mg/kg/injection, schedule: Q01DX009 (ip), vehicle: saline with Tween-80 93 % of control | dose: 25.0 mg/kg/injection, schedule: Q04DX003 (ip), vehicle: saline with Tween-80 101 % of control | [16] 103 % of control | dose: 50.0 mg/kg/injection, schedule: Q04DX003 (ip), vehicle: saline with Tween-80 95 % of control | [17] 105 % of control and 106 % of control | [18] 106 % of control

CC#CCOCC1CN(c2ccccc2)C(=O)O1 (stereo not drawn)
inactive: [19] 117 % of control | [17] 95 % of control | [20] 103 % of control | [18] 103 % of control | dose: 400.0 mg/kg/injection, schedule: Q01DX009 (ip), vehicle: saline with Tween-80 100 % of control | dose: 400.0 mg/kg/injection, schedule: Q04DX003 (ip), vehicle: saline with Tween-80 101 % of control

BrC1C2CCC(C2)C1Br (stereo not drawn)
inactive: [4] 102 % of control | [5] 100 % of control | [9] 100 % of control

CC(C(=O)c1ccccc1)S(=O)(=O)O (stereo not drawn)
inactive: [6] 102 % of control | [7] 94 % of control | [8] 96 % of control

Nc1ncnc2nc(Cc3ccccc3)[nH]c12
inactive: dose: 100.0 mg/kg/injection, schedule: Q01DX001 (ip), vehicle: gum acacia 95 % of control | dose: 200.0 mg/kg/injection, schedule: Q01DX001 (ip), vehicle: gum acacia 109 % of control

C1CSCS1
inactive: dose: 12.5 mg/kg/injection, schedule: Q04DX002 (ip), vehicle: saline with Tween-80 103 % of control | dose: 25.0 mg/kg/injection, schedule: Q04DX002 (ip), vehicle: saline with Tween-80 106 % of control | dose: 50.0 mg/kg/injection, schedule: Q04DX002 (ip), vehicle: saline with Tween-80 106 % of control

O=C(Nc1ccc(F)cc1)Nc1nccs1
inactive: dose: 100.0 mg/kg/injection, schedule: Q01DX001 (ip), vehicle: Klucel (hydroxypropylcellulose) (HPC) 88 % of control | [13] 98 % of control and 102 % of control | [1] 102 % of control | dose: 200.0 mg/kg/injection, schedule: Q01DX001 (ip), vehicle: Klucel (hydroxypropylcellulose) (HPC) 96 % of control | [14] 101 % of control and 117 % of control | [2] 111 % of control | dose: 400.0 mg/kg/injection, schedule: Q01DX001 (ip), vehicle: Klucel (hydroxypropylcellulose) (HPC) 93 % of control | [15] 98 % of control | [3] 113 % of control

COC(=O)c1cccc2cnccc12
inactive: [1] 107 % of control | [2] 110 % of control | [3] 96 % of control

CCc1ccc(C)[n+](N)c1
inactive: dose: 50.0 mg/kg/injection, schedule: Q01DX001 (ip), vehicle: saline 103 % of control | [4] 109 % of control

OC(c1cc(-c2cccc(Cl)c2)nc2ccccc12)C1CCCCN1 (stereo not drawn)
inactive: dose: 50.0 mg/kg/injection, schedule: Q01DX001 (ip), vehicle: carboxymethylcellulose (CMC) 92 % of control | dose: 100.0 mg/kg/injection, schedule: Q01DX001 (ip), vehicle: carboxymethylcellulose (CMC) 90 % of control | dose: 200.0 mg/kg/injection, schedule: Q01DX001 (ip), vehicle: carboxymethylcellulose (CMC) 95 % of control

O=C(Nc1ccc(F)cc1)Nc1ccccc1C(F)(F)F
inactive: [13] 95 % of control | [14] 97 % of control | [15] 88 % of control

Cc1cccc(C)c1OC(=O)Nc1cccc2ccccc12
inactive: dose: 12.5 mg/kg/injection, schedule: Q04DX002 (ip), vehicle: Klucel (hydroxypropylcellulose) (HPC) 105 % of control | dose: 25.0 mg/kg/injection, schedule: Q04DX002 (ip), vehicle: Klucel (hydroxypropylcellulose) (HPC) 118 % of control | dose: 50.0 mg/kg/injection, schedule: Q04DX002 (ip), vehicle: Klucel (hydroxypropylcellulose) (HPC) 112 % of control | [10] 95 % of control | [11] 97 % of control | [12] 89 % of control

CC(=O)OC1(C)CC(C)C(O)C(C(O)CC2CC(=O)NC(=O)C2)C1 (stereo not drawn)
inactive: dose: 5.0 mg/kg/injection, schedule: Q01DX001 (ip), vehicle: water 98 % of control | dose: 10.0 mg/kg/injection, schedule: Q01DX001 (ip), vehicle: water 107 % of control | dose: 20.0 mg/kg/injection, schedule: Q01DX001 (ip), vehicle: water 112 % of control

C/C=C/CCCCC
inactive: [16] 102 % of control | [19] 118 % of control | [20] 94 % of control

Source: PubChem BioAssay AID248 (DTP/NCI, 2004)
